{"source": "ChEMBL document CHEMBL4402592", "about": "“Targeting Endoplasmic Reticulum α-Glucosidase I with a Single-Dose Iminosugar Treatment Protects against Lethal Influenza and Dengue Virus Infections” (J Med Chem, 2020)", "test_system": "Influenza A virus", "assay": "Antiviral activity against Influenza A virus (A/PA/10/2010 (H3N2)) infected in BALB/c mouse assessed as increase in animal survival rate at 10 mg/kg, po administered via gavage starting at 8 hrs post infection and continuing BID for 6 days", "type": "functional, organism-based", "note": "Activity calls are given as the source filed them. No cut-off for these calls is given here."}
{"smiles": "CCOC(=O)C1=C[C@@H](OC(CC)CC)[C@H](NC(C)=O)[C@@H](N)C1", "values": [{"measurement": "Activity", "result": "Active"}]}
